Read-outs that look alike come from different tables or passages of the source.
Experiments:
mice [1] = experiment: Mouse locomotor activity; assay type: in vivo; conditions: PO; note: unit not given here
Method: (§1) In order to ensure effects of the compounds on immobility time were not related to a general stimulant effect on baseline motor activity, locomotor activity was assessed using photocell monitored cages (Med-Associates Inc.). Each test chamber was equipped with infrared photocell beams to measure movement of the animals. Horizontal and vertical activity were measured
(§2) Rats or mice were pretreated with vehicle or test compounds and placed back in home cage, following which they will be individually placed in locomotor cages and activity was monitored in 5 minute intervals for up to 60 min.
(§3) Data were analyzed by one way analysis of variance (ANOVA) followed by post-hoc comparisons where appropriate. An effect was considered significant if p < 0.05. Data are represented as the mean and standard error to the mean (s.e.m).

mice [2] = experiment: Mouse tail suspension test; assay type: in vivo; conditions: PO, 30-60 minutes before the test, 5 minutes recording
Rats [3] = experiment: Rat locomotor activity; assay type: in vivo; conditions: PO
Method: as §1, §2, §3

Rats [4] = experiment: Rat forced swim test; assay type: in vivo; conditions: PO, 24 hours and 30-60 minutes before the 5 minute test
[5] = target: Norepinephrine Transporter (NET) Sites in Mouse Brain (Mus musculus, UniProt O55192); conditions: PO, mice sacrificed 60 minutes after treatment, cortex
[6] = target: T1, DA Transporter (DAT) Sites in Mouse Brain (Mus musculus, UniProt Q61327); experiment: Ex vivo [3H] WIN 35428 binding after oral dosing; parameters: species or system C57BL/6 mice; conditions: mice sacrificed 60 minutes after treatment, striatum
T1 construct: Striatum was used to determine occupancy of DA transporter sites; from tissue; host or cells: C57BL/6 mouse striatum homogenate
T1 sequence (Q61327 whole entry): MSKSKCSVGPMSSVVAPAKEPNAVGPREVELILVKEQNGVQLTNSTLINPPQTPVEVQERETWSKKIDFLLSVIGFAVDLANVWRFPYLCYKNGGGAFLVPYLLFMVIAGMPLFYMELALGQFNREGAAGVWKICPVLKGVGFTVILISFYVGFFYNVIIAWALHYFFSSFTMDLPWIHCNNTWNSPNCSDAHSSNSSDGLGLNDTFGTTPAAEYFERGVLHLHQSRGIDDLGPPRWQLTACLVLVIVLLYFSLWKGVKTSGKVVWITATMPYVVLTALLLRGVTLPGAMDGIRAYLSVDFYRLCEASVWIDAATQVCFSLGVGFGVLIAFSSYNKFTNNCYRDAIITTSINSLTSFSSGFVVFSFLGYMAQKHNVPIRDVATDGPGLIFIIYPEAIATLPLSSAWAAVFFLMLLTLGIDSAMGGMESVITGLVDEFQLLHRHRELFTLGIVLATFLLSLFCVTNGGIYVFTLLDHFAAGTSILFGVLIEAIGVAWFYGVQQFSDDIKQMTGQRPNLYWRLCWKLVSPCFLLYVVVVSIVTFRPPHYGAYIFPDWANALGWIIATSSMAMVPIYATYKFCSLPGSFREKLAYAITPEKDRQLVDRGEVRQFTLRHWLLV

Norepinephrine Transporter (NET) Sites in Mouse Brain, sequence (O55192 whole entry): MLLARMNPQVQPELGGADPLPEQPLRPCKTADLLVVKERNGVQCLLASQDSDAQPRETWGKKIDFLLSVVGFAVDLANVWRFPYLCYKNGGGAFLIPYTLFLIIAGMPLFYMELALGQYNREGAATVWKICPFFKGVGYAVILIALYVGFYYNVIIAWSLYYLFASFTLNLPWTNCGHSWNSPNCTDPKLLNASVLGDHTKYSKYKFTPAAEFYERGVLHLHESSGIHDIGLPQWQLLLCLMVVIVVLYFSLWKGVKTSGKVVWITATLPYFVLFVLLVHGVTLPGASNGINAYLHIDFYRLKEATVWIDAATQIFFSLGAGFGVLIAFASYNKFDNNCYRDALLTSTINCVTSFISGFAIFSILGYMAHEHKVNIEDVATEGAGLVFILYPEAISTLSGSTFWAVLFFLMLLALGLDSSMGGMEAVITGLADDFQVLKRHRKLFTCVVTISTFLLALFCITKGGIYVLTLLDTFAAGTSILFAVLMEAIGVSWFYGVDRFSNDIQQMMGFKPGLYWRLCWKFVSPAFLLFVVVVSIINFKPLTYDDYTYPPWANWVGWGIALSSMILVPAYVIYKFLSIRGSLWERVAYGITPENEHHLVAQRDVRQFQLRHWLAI

| SMILES | Mouse Locomotor Activity Total Distance Traveled ± S.E.M. (mice [1]; 3 mg/kg) | Mouse Locomotor Activity Total Distance Traveled ± S.E.M. (mice [1]; 10 mg/kg) | Mouse Locomotor Activity Total Distance Traveled ± S.E.M. (mice [1]; 30 mg/kg) | Mouse Tail Suspension Mean Immobility Time ± S.E.M. (mice [2]; 3 mg/kg) | Mouse Tail Suspension Mean Immobility Time ± S.E.M. (mice [2]; 10 mg/kg) | Mouse Tail Suspension Mean Immobility Time ± S.E.M. (mice [2]; 30 mg/kg) | Rat Locomotor Activity Total Distance Traveled ± S.E.M. (Rats [3]; 3 mg/kg) | Rat Locomotor Activity Total Distance Traveled ± S.E.M. (Rats [3]; 10 mg/kg) | Rat Locomotor Activity Total Distance Traveled ± S.E.M. (Rats [3]; 30 mg/kg) | Rat Forced Swim (Means ± S.E.M.) Climbing (Rats [4]; 3 mg/kg) | Rat Forced Swim (Means ± S.E.M.) Immobility (Rats [4]; 3 mg/kg) | Rat Forced Swim (Means ± S.E.M.) Swimming (Rats [4]; 3 mg/kg) | Rat Forced Swim (Means ± S.E.M.) Climbing (Rats [4]; 10 mg/kg) | Rat Forced Swim (Means ± S.E.M.) Immobility (Rats [4]; 10 mg/kg) | Rat Forced Swim (Means ± S.E.M.) Swimming (Rats [4]; 10 mg/kg) | Rat Forced Swim (Means ± S.E.M.) Climbing (Rats [4]; 30 mg/kg) | Rat Forced Swim (Means ± S.E.M.) Immobility (Rats [4]; 30 mg/kg) | Rat Forced Swim (Means ± S.E.M.) Swimming (Rats [4]; 30 mg/kg) | other results |
| --- | --- | --- | --- | --- | --- | --- | --- | --- | --- | --- | --- | --- | --- | --- | --- | --- | --- | --- | --- |
| CCC(N)C1(c2ccc(Cl)c(Cl)c2)CCCCC1 (single isomer, unassigned) [17 E1, 1-(1-(3,4-dichlorophenyl)cyclohexyl)propan-1-amine] | 649.3 ± 78.4 | 478.3 ± 88.5 | 428.3 ± 120.6 | 184.7 ± 9.0 | 182.6 ± 4.1 | 150.9 ± 7.8 |  |  |  |  |  |  |  |  |  |  |  |  |  |
| CN(C)CC1(c2ccc(Cl)c(Cl)c2)CCCCC1O (single isomer, unassigned) [153 E2, trans-2-(3,4-dichlorophenyl)-2-((dimethylamino)methyl)cyclohexanol] | 625.5 ± 88.8 | 519.5 ± 88.4 | 573.7 ± 63.6 |  |  |  | 1577.8 ± 80.1 | 1994.2 ± 263.9 | 2033.7 ± 215.4 | 8.8 ± 1.5 | 49.9 ± 1.7 | 1.9 ± 0.8 | 11.7 ± 1.8 | 44.0 ± 2.1 | 4.3 ± 1.1 | 22.2 ± 5.2 | 31.3 ± 6.7 | 4.6 ± 1.3 |  |
| CNC(C)C1(c2ccc(Cl)c(Cl)c2)CCCCC1.Cl (single isomer, unassigned) [48 E1, 1-(1-(3,4-dichlorophenyl)cyclohexyl)-N-methylethanamine hydrochloride] | 622.5 ± 101.6 | 620.0 ± 79.4 | 468.6 ± 114.2 | 189.8 ± 7.2 | 174.1 ± 5.8 | 134.5 ± 9.6 | 1869.9 ± 188.4 | 1825.3 ± 109.3 | 1840.6 ± 56.6 | 7.1 ± 0.6 | 49.6 ± 1.5 | 3.7 ± 1.0 | 17.9 ± 2.5 | 35.6 ± 3.5 | 6.5 ± 1.6 | 20.6 ± 2.9 | 26.9 ± 4.4 | 9.7 ± 1.7 | Mean Specific Binding (dpm) ± S.E.M., NET ([5]; 1 mg/kg): 2111 ± 119 dpm; Mean Specific Binding (dpm) ± S.E.M., NET ([5]; 3 mg/kg): 1911 ± 144 dpm; Mean Specific Binding (dpm) ± S.E.M., NET ([5]; 10 mg/kg): 954 ± 115 dpm; Mean Specific Binding (dpm) ± S.E.M., NET ([5]; 30 mg/kg): 346 ± 55 dpm; Mean Specific Binding (dpm) ± S.E.M., DAT ([6]; 1 mg/kg): 20656 ± 1531 dpm; Mean Specific Binding (dpm) ± S.E.M., DAT ([6]; 3 mg/kg): 18039 ± 1265 dpm; Mean Specific Binding (dpm) ± S.E.M., DAT ([6]; 10 mg/kg): 9792 ± 977 dpm; Mean Specific Binding (dpm) ± S.E.M., DAT ([6]; 30 mg/kg): 3173 ± 541 dpm |
| CN(C)CC1(c2ccc3ccccc3c2)CCCCC1O (single isomer, unassigned) [164 E2, trans-2-((dimethylamino)methyl)-2-(naphthalen-2-yl)cyclohexanol] | 518.2 ± 106.1 | 464.5 ± 86.2 | 669.9 ± 75.6 | 181.8 ± 6.3 | 179.1 ± 4.5 | 141.8 ± 6.0 |  |  |  |  |  |  |  |  |  |  |  |  |  |
| CN(C)CC1(c2ccc3ccccc3c2)CCCCC1O (single isomer, unassigned) [164 E1, trans-2-((dimethylamino)methyl)-2-(naphthalen-2-yl)cyclohexanol] | 377.8 ± 67.6 | 210.3 ± 40.4 | 494.0 ± 84.9 | 183.8 ± 6.5 | 162.1 ± 4.6 | 155.3 ± 7.8 |  |  |  |  |  |  |  |  |  |  |  |  |  |
| CNCC1(c2ccc3ccccc3c2)CCCCC1 [Compound 93, N-methyl-1-(1-(naphthalen-2-yl)cyclohexyl)methanamine] | 644.0 ± 55.7 | 606.9 ± 72.4 | 737.6 ± 89.5 | 203.5 ± 8.0 | 185.4 ± 7.9 | 162.0 ± 8.1 | 1802.6 ± 150.6 | 1641.0 ± 144.5 | 2095.6 ± 147.2 | 9.0 ± 1.3 | 44.5 ± 2.5 | 6.5 ± 1.6 | 12.8 ± 2.2 | 41.4 ± 2.8 | 6.9 ± 1.3 | 22.2 ± 3.5 | 25.8 ± 5.4 | 12.0 ± 2.1 |  |
| CNC(C)C1(c2ccc(Cl)c(Cl)c2)CCCCC1 (single isomer, unassigned) [44 E1, 1-(1-(3,4-dichlorophenyl)cyclohexyl)-N-methylethanamine] | 576.5 ± 66.9 | 721.1 ± 36.5 | 402.3 ± 71.0 | 188.9 ± 7.3 | 174.5 ± 8.1 | 120.4 ± 9.0 |  |  |  |  |  |  |  |  |  |  |  |  |  |
